Assay results published in patent US20080003438A1, “Heterocyclic siloxanes for use in biocidal coatings and materials” (Auburn University, priority 2002, published 2008).

Tests used:
[1] = system: spores of Aspergillus niger (ATCC # 1004); experiment: Antifungal activity of chlorinated coated surfaces; format: cell-based
Description: Soft and hard surfaces were treated by exposure to a solution of 3-triethoxysilylpropyl-5,5-dimethylhydantoin, prepared as described in Example 1. The soft surfaces used for detection of antifungal properties were woven textiles composed of fibers of polypropylene, cotton (cellulose), polyester, rayon, and slabs from a cellulose kitchen sponge. Hard surfaces prepared were polyvinylchloride (PVC) sheets, and porcelain and marble tiles. Challenge inocula of prepared surfaces consisted of aliquots of stock suspensions of spores of Aspergillus niger (ATCC # 1004), a black mold, harvested from cultured lawns on Potato Dextrose Agar (PDA) plates. Methods for preparation of the halogen charged surfaces and protocols for challenge were as described in Example 11. In this case recovery of Aspergillus was accomplished by the plate dilution method on PDA, and the results were expressed as log 10 reductions compared to the controls. Contact times varied from 24-72 hours, considerably longer than was allowed for other organisms because of the well established durability of black mold spores under a wide range of physical and chemical conditions.

[2] = system: MS2 phage; experiment: Antiviral activity of chlorinated coated surfaces, modified AATCC Method 100-1998; format: cell-based, MS2 virus
Description: Soft and hard surfaces were treated by exposure to a solution of 3-triethoxysilylpropyl-5,5-dimethylhydantoin, as prepared in Example 1, and then halogenated with hypochlorite bleach, prior to being exposed to a challenge inoculum of a virus (MS2 phage). […] Soft surfaces used in these experiments were swatches of woven cotton textiles, and slabs cut from a standard kitchen sponge. Hard surfaces used were porcelain and marble tiles.
For the preparation of antimicrobial textiles, fabric and sponge samples were immersed in 5% solution of 3-triethoxysilylpropyl-5,5-dimethylhydantoin and dried in a convection oven at 90° C. for two hours. Chlorination of the coated cellulose materials was accomplished by placing them in the wash chamber of a standard, household washing machine, and processing them through a normal, cold water small load cycle, with one rinse. The washing solution contained 100 mL of CLOROX ULTRA (sodium hypochlorite) per load. […] Chlorine contents were calculated and expressed as ppm Cl^+. […]
Hard surface samples were exposed to the 3-triethoxysilylpropyl-5,5-dimethylhydantoin by using a sponge soaked in the 5% solution, before transfer to a drying oven at 90° C. for two hours. […] Chlorine bound to hard surfaces was determined by iodometric/thiosulfate titration, and chlorine contents were expressed as μg Cl^+ per square cm. […]

[3] = system: Escherichia coli (ATCC 2666); experiment: Challenge of treated cotton swatches, modified AATCC Method 100; format: cell-based; settings: contact time interval 60-120 minutes
Description: (§1) Treated cotton swatches were challenged with S. aureus (ATCC 6538) and Escherichia coli (ATCC 2666) at a concentration of between 10^8 and 10^9 CFU/mL in pH 7 phosphate buffer solution using a modified version of AATCC Method 100. The swatches were quenched with 0.02 N sodium thiosulfate solution at contact times of 10, 30, 60, and 120 min. Serial dilutions of the solutions contacting the swatches were plated on nutrient agar, incubated for 48 hours at 37° C., and plate counts were made to determine the presence of viable bacteria. […] The control sample (cotton soaked in 10% bleach, rinsed, and dried) gave only a 0.4 log reduction at 30 minutes. […] The control sample (cotton soaked in 10% bleach, rinsed, and dried) gave a 0 log reduction at 120 minutes.

[4] = system: S. aureus (ATCC 6538); experiment: as above; format: cell-based; settings: coated chlorinated cotton swatches, contact time interval 10-30 minutes, pH 7 phosphate buffer
Description: as §1

SMILES: CCO[Si](CCCN1C(=O)NC(C)(C)C1=O)(OCC)OCC [3-triethoxysilylpropyl-5,5-dimethylhydantoin]
- log 10 reduction in mold concentration ([1]; cotton, contact 24 hours): 8 logs
- log 10 reduction in mold concentration ([1]; marble, 72 hours after spore inoculation): 4 log
- log 10 reduction in mold concentration ([1]; porcelain, 72 hours after spore inoculation): 5 log
- log 10 reduction in mold concentration ([1]; sponge slabs, contact 24 hours): 4 log
- log 10 reduction in mold concentration ([1]; synthetic fibers (polypropylene, polyester), 72 hours of contact): 5 logs
- log 10 reduction in mold concentration ([1]; vinyl, 72 hours after spore inoculation): 4 log
- Log 10 reduction of MS2 titer ([2]; cellulose substrates (textile and sponge), 24 hours of contact): approximately 4 logs
- Log 10 reduction of MS2 titer ([2]; hard surfaces, contact times of as little as 6 hours): approximately 2 logs
- log reduction of E. coli [3]: > 5.9 logs
- log reduction of S. aureus [4]: > 5.7 logs
